Laboratory results published in ChEMBL document CHEMBL6114965, “Novel dual-targeting PROTAC degraders of GSK-3β and CDK5: A promising approach for pancreatic cancer treatment” (Bioorg Med Chem, 2025).
The source made the active and inactive calls. No cut-off for these calls is given here.

Key:
[1] = Oral bioavailability in mouse at 5 mg/kg; type: ADME, organism-based; details: in vivo
[2] = Cytotoxicity against human A549 cells; type: toxicity, cell-based
[3] = target: T1, Protein cereblon/Cyclin-dependent kinase 5 (Homo sapiens, UniProt Q00535+Q96SW2); experiment: PROTAC activity at CRBN/CDK5 in human PANC-1 cells assessed as induction of CDK5 degradation at 1 to 2.8 uM incubated for 10 hrs by Western blot analysis; type: cell-based; details: dose 1-2.8 µM
Target sequence in this assay (Q00535 whole entry, looked up): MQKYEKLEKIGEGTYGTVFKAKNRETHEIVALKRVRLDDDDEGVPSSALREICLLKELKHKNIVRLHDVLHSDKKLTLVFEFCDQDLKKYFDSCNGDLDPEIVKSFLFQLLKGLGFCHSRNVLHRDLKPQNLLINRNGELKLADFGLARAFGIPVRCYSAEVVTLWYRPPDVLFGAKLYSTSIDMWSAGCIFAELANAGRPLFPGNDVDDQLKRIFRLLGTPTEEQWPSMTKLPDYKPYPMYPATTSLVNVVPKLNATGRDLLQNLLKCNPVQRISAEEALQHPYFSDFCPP
Target sequence in this assay (Q96SW2 whole entry, looked up): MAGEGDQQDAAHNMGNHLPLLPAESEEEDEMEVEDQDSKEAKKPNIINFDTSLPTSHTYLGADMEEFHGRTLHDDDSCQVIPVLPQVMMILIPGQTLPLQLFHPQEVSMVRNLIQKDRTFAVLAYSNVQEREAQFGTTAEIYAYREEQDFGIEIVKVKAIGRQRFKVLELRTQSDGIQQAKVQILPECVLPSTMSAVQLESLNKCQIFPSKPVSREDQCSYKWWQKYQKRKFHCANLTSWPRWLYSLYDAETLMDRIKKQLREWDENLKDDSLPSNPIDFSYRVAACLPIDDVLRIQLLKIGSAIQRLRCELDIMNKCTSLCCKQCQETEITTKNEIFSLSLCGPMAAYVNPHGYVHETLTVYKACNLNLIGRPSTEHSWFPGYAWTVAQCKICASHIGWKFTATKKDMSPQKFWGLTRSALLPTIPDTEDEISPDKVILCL

[4] = Cmax in mouse at 5 mg/kg, iv; type: ADME, organism-based; details: in vivo
[5] = Metabolic stability in pooled human liver microsomes assessed as half-life at 100 uM measured upto 120 mins by LC-MS/MS analysis; type: ADME, Microsome
[6] = Tmax in mouse at 5 mg/kg, iv; type: ADME, organism-based; details: in vivo
[7] = target: T1, Protein cereblon/Cyclin-dependent kinase 5; experiment: PROTAC activity at CRBN/CDK5 in human PANC-1 cells assessed as induction of CDK5 degradation by target engagement binding based cell-ELISA
Target sequence in this assay (Q00535 whole entry): as the sequence (Q00535 whole entry, looked up) above
Target sequence in this assay (Q96SW2 whole entry): as the sequence (Q96SW2 whole entry, looked up) above

Cytochrome P450 1A2 = target: T2, Cytochrome P450 1A2 (Homo sapiens, UniProt P05177); experiment: Inhibition of CYP1A2 (unknown origin) using phenacetin as substrate […]; type: ADME
T2 sequence (P05177 whole entry): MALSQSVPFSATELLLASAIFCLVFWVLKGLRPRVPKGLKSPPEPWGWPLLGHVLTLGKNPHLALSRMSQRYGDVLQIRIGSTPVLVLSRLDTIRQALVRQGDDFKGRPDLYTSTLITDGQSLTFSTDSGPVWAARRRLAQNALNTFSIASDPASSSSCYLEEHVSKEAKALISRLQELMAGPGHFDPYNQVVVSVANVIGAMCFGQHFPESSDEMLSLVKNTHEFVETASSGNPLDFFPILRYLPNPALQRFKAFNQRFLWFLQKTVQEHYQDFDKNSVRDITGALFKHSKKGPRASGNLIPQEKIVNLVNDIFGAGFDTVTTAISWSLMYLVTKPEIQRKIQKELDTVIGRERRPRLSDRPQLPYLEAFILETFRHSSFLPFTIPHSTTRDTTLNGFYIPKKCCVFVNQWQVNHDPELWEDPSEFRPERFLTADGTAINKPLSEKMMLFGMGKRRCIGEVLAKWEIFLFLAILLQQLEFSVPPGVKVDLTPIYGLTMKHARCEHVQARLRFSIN

[8] = Cmax in mouse at 5 mg/kg, po; type: ADME, organism-based; details: in vivo
Cytochrome P450 2C9 = Cytochrome P450 2C9 (Homo sapiens, UniProt P11712); experiment: Inhibition of CYP2C9 (unknown origin) using diclofenac as substrate […]; type: ADME
Cytochrome P450 3A4 [9] = target: T3, Cytochrome P450 3A4 (Homo sapiens, UniProt P08684); experiment: Inhibition of CYP3A4 (unknown origin) using midazolam as substrate […]; type: ADME
[10] = Bioavailability in mouse at 5 mg/kg, […]; type: ADME, organism-based; details: in vivo
[11] = Half-life in mouse at 5 mg/kg, iv; type: ADME, organism-based; details: in vivo
[12] = Half-life in mouse at 5 mg/kg, po; type: ADME, organism-based; details: in vivo
MIA PaCa-2 = experiment: Antiproliferative activity against human MIA PaCa-2 cells assessed as inhibition of cell viability by MTT assay; type: functional, cell-based
[13] = Observed clearance in mouse at 5 mg/kg, po; type: ADME, organism-based; details: in vivo
Cytochrome P450 2C8 = target: T4, Cytochrome P450 2C8 (Homo sapiens, UniProt P10632); experiment: Inhibition of CYP2C8 (unknown origin) using amodiaquine as substrate […]; type: ADME
T4 sequence (P10632 whole entry): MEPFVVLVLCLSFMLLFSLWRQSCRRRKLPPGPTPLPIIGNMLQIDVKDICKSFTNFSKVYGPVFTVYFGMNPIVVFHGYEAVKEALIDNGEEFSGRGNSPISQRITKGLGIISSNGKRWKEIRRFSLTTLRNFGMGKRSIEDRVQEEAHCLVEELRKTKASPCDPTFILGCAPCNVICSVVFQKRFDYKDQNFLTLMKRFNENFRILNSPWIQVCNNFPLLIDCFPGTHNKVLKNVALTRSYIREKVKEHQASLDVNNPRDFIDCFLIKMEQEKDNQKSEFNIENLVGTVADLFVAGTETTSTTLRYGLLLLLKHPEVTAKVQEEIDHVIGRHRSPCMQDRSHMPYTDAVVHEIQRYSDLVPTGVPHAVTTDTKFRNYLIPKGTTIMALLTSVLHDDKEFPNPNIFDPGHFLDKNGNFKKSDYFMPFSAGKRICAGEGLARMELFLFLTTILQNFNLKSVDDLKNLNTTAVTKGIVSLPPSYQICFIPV

[14] = target: T5, Protein cereblon/Glycogen synthase kinase-3 beta (Homo sapiens, UniProt P49841+Q96SW2); experiment: PROTAC activity at CRBN/GSK3beta in human PANC-1 cells assessed as induction of GSK3beta degradation by measuring maximal efficacy by target engagement binding based cell-ELISA relative to control
Target sequence in this assay (P49841 whole entry, looked up): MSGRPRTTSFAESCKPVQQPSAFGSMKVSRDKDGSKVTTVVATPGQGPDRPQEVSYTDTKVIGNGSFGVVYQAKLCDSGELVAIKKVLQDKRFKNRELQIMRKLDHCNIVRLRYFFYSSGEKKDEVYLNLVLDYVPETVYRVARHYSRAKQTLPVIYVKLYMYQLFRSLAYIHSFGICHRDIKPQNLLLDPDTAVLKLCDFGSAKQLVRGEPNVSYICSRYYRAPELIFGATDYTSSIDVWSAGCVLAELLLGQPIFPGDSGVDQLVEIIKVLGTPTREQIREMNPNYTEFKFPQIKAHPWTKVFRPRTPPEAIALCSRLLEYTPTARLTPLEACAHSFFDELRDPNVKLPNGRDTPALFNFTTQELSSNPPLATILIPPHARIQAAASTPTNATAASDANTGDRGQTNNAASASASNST
Target sequence in this assay (Q96SW2 whole entry, looked up): as the sequence (Q96SW2 whole entry, looked up) above

[15] = Tmax in mouse at 5 mg/kg, po; type: ADME, organism-based; details: in vivo
[16] = target: T5, Protein cereblon/Glycogen synthase kinase-3 beta; experiment: PROTAC activity at CRBN/GSK3beta in human PANC-1 cells assessed as induction of GSK3beta degradation at 1 to 2.8 uM incubated for 10 hrs by Western blot analysis; type: cell-based; details: dose 1-2.8 µM
Target sequence in this assay (P49841 whole entry, looked up): as the sequence (P49841 whole entry, looked up) above
Target sequence in this assay (Q96SW2 whole entry, looked up): as the sequence (Q96SW2 whole entry, looked up) above

ASPC1 = experiment: Antiproliferative activity against human ASPC1 cells assessed as inhibition of cell viability by MTT assay; type: functional, cell-based
BXPC-3 = experiment: Antiproliferative activity against human BXPC-3 cells assessed as inhibition of cell viability by MTT assay; type: functional, cell-based
Cytochrome P450 3A4 [17] = target: T3, Cytochrome P450 3A4; experiment: Inhibition of CYP3A4 (unknown origin) using testosterone as substrate […]; type: ADME
[18] = Cytotoxicity against human HepG2 cells; type: toxicity, cell-based
[19] = AUC in mouse at 5 mg/kg, po; type: ADME, organism-based; details: in vivo
[20] = Permeability of compound in PBS at pH 7.4 at 500 uM incubated for 4 hrs by UV spectrophotometry based PAMPA; type: ADME; details: read-out: permeability
[21] = target: T5, Protein cereblon/Glycogen synthase kinase-3 beta; experiment: PROTAC activity at CRBN/GSK3beta in human PANC-1 cells assessed as induction of GSK3beta degradation at 0.5 to 2.8 uM incubated for 10 hrs in presence of MG132 by Western blot analysis; type: cell-based; details: dose 0.5-2.8 µM
Target sequence in this assay (P49841 whole entry, looked up): as the sequence (P49841 whole entry, looked up) above
Target sequence in this assay (Q96SW2 whole entry, looked up): as the sequence (Q96SW2 whole entry, looked up) above

Cytochrome P450 2D6 = Cytochrome P450 2D6 (Homo sapiens, UniProt P10635); experiment: Inhibition of CYP2D6 (unknown origin) using dextromethorphan as substrate […]; type: ADME
Cytochrome P450 2C19 = Cytochrome P450 2C19 (Homo sapiens, UniProt P33261); experiment: Inhibition of CYP2C19 (unknown origin) using s-mephenytoin as substrate […]; type: ADME
[22] = target: T1, Protein cereblon/Cyclin-dependent kinase 5; experiment: PROTAC activity at CRBN/CDK5 in human PANC-1 cells assessed as induction of CDK5 degradation at 0.5 to 2.8 uM incubated for 10 hrs in presence of MG132 by Western blot analysis; type: cell-based; details: dose 0.5-2.8 µM
Target sequence in this assay (Q00535 whole entry, looked up): as the sequence (Q00535 whole entry, looked up) above
Target sequence in this assay (Q96SW2 whole entry, looked up): as the sequence (Q96SW2 whole entry, looked up) above

[23] = target: T5, Protein cereblon/Glycogen synthase kinase-3 beta; experiment: PROTAC activity at CRBN/GSK3beta in human PANC-1 cells assessed as induction of GSK3beta degradation by target engagement binding based cell-ELISA
Target sequence in this assay (P49841 whole entry): as the sequence (P49841 whole entry, looked up) above
Target sequence in this assay (Q96SW2 whole entry): as the sequence (Q96SW2 whole entry, looked up) above

Cytochrome P450 2B6 = target: T6, Cytochrome P450 2B6 (Homo sapiens, UniProt P20813); experiment: Inhibition of CYP2B6 (unknown origin) using bupropion as substrate […]; type: ADME
T6 sequence (P20813 whole entry): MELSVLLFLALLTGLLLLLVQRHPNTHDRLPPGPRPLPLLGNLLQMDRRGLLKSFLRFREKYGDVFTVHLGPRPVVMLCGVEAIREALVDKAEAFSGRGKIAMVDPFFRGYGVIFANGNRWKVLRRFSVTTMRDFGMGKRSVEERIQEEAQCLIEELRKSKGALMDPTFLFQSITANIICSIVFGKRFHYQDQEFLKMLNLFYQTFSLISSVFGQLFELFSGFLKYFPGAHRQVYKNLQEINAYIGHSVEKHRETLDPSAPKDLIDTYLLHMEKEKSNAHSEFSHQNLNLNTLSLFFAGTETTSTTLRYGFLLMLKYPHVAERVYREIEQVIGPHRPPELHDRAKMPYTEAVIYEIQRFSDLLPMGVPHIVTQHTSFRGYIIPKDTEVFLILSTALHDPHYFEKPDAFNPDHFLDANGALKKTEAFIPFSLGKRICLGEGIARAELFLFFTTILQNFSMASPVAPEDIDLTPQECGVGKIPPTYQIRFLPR

[24] = AUC in mouse at 5 mg/kg, iv; type: ADME, organism-based; details: in vivo
PANC-1 = experiment: Antiproliferative activity against human PANC-1 cells assessed as inhibition of cell viability by MTT assay; type: functional, cell-based
[25] = target: T1, Protein cereblon/Cyclin-dependent kinase 5; experiment: PROTAC activity at CRBN/CDK5 in human PANC-1 cells assessed as induction of CDK5 degradation by measuring maximal efficacy by target engagement binding based cell-ELISA relative to control
Target sequence in this assay (Q00535 whole entry, looked up): as the sequence (Q00535 whole entry, looked up) above
Target sequence in this assay (Q96SW2 whole entry, looked up): as the sequence (Q96SW2 whole entry, looked up) above

T3 sequence (P08684 whole entry): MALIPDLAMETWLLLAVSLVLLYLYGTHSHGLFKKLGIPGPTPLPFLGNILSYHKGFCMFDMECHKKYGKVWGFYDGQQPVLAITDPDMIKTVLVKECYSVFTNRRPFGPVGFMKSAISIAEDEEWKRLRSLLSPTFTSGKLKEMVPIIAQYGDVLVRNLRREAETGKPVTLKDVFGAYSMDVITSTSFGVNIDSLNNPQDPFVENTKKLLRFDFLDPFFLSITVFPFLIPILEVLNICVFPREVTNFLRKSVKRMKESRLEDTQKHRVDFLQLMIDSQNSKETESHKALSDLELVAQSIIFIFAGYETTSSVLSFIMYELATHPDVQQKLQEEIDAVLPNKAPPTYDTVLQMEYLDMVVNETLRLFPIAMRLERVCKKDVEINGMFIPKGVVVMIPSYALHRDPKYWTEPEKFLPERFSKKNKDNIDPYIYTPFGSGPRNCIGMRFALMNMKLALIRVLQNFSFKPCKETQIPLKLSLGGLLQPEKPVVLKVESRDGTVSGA
Cytochrome P450 2D6, sequence (P10635 whole entry): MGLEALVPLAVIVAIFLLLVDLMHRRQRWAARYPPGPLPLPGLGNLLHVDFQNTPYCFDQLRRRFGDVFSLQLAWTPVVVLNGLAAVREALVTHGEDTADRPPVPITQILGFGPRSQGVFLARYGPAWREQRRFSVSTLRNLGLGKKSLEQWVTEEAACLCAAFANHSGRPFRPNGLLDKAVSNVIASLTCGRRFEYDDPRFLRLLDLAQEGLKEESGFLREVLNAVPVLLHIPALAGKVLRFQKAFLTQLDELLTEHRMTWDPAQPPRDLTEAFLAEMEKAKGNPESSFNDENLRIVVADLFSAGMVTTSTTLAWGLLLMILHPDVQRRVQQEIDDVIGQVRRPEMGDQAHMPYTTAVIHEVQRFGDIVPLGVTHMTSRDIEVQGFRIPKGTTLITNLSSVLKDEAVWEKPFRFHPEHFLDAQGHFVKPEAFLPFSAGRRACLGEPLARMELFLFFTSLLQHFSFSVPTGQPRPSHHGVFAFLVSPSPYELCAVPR
Cytochrome P450 2C19, sequence (P33261 whole entry): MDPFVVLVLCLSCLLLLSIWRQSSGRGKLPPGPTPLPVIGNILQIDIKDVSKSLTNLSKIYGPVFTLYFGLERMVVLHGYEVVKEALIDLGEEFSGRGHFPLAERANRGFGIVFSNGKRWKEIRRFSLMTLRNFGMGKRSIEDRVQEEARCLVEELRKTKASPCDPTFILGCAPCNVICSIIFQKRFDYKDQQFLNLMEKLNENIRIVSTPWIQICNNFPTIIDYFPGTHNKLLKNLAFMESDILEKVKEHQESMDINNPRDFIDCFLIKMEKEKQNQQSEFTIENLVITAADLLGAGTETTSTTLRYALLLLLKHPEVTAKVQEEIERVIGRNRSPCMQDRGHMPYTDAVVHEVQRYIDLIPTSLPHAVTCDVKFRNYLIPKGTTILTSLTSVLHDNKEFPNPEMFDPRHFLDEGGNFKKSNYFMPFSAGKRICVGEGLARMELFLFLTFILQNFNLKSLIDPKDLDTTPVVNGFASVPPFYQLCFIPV
Cytochrome P450 2C9, sequence (P11712 whole entry): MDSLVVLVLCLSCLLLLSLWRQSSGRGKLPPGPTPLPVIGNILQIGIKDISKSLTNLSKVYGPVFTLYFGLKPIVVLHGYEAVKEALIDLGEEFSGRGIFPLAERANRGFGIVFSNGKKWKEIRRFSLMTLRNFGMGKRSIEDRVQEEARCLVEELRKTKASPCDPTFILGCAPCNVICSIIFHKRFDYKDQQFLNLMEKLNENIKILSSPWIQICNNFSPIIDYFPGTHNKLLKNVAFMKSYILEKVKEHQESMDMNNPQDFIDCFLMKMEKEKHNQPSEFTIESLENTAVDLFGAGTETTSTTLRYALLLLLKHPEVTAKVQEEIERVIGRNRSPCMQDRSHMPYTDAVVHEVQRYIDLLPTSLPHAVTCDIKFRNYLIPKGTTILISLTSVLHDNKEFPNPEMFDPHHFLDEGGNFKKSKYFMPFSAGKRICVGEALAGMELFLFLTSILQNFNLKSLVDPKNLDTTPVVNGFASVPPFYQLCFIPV

**Q.** For `O=C1CCC(N2C(=O)c3cccc(NCCCCCn4cc(CN5CCN(CCCn6cc(C7=C(c8c[nH]c9ccccc89)C(=O)NC7=O)c7ccccc76)CC5)nn4)c3C2=O)C(=O)N1` (stereo not given), which F [1] is on record?
**A.** Its F is 15%.

**Q.** What about the CC50 [2] of the same molecule?
**A.** The CC50 was 8.23 µM.

**Q.** And the Activity [3]?
**A.** The Activity was “Active”.

**Q.** And the Cmax [4]?
**A.** Its Cmax is 961 ng/mL.

**Q.** And the half-life at 100 µM [5]?
**A.** Its half-life at 100 µM is 0.934 h.

**Q.** And the Tmax [6]?
**A.** The Tmax was 4 h.

**Q.** And the DC50 [7]?
**A.** The DC50 was 0.048 µM.

**Q.** And the IC50 (Cytochrome P450 1A2)?
**A.** The IC50 was 55.2 µM.

**Q.** And the Cmax [8]?
**A.** Its Cmax is 761 ng/mL.

**Q.** What about the IC50 (Cytochrome P450 2C9) of the same molecule?
**A.** Its IC50 is 33.3 µM.

**Q.** And the IC50 (Cytochrome P450 3A4 [9])?
**A.** Its IC50 is 39.2 µM.

**Q.** What about the bioavailability [10] of the same molecule?
**A.** The bioavailability was 35%.

**Q.** What about the half-life [11] of the same molecule?
**A.** Its half-life is 6 h.

**Q.** And the half-life [12]?
**A.** The half-life was 4 h.

**Q.** And the IC50 (MIA PaCa-2)?
**A.** Its IC50 is 2.16 µM.

**Q.** What about the CL/F [13] of the same molecule?
**A.** Its CL/F is 90 mL/min/kg.

**Q.** What about the IC50 (Cytochrome P450 2C8) of the same molecule?
**A.** Its IC50 is greater than 100 µM.

**Q.** What about the Emax [14] of the same molecule?
**A.** Its Emax is 90%.

**Q.** What about the Tmax [15] of the same molecule?
**A.** The Tmax was 2 h.

**Q.** What about the Activity [16] of the same molecule?
**A.** Its Activity is “Active”.

**Q.** And the IC50 (ASPC1)?
**A.** The IC50 was 1.96 µM.

**Q.** What about the IC50 (BXPC-3) of the same molecule?
**A.** Its IC50 is 2.95 µM.

**Q.** And the IC50 (Cytochrome P450 3A4 [17])?
**A.** Its IC50 is 25.3 µM.

**Q.** What about the CC50 [18] of the same molecule?
**A.** The CC50 was 9.05 µM.

**Q.** And the AUC [19]?
**A.** Its AUC is 1550 ng·h/mL.

**Q.** What about the Papp at 4 h, 500 µM [20] of the same molecule?
**A.** Its Papp at 4 h, 500 µM is 79.9 ×10⁻⁶ cm/s.

**Q.** What about the Activity [21] of the same molecule?
**A.** The Activity was “inactive”.

**Q.** What about the IC50 (Cytochrome P450 2D6) of the same molecule?
**A.** Its IC50 is 45.5 µM.

**Q.** What about the IC50 (Cytochrome P450 2C19) of the same molecule?
**A.** The IC50 was 46.2 µM.

**Q.** And the Activity [22]?
**A.** The Activity was “inactive”.

**Q.** What about the DC50 [23] of the same molecule?
**A.** The DC50 was 0.042 µM.

**Q.** And the IC50 (Cytochrome P450 2B6)?
**A.** Its IC50 is 45.3 µM.

**Q.** And the AUC [24]?
**A.** Its AUC is 3700 ng·h/mL.

**Q.** What about the IC50 (PANC-1) of the same molecule?
**A.** Its IC50 is 1.81 µM.

**Q.** What about the Emax [25] of the same molecule?
**A.** The Emax was 88%.
